From patent US9458202B2, “Peptidomimetic macrocycles with improved properties” (Aileron Therapeutics, Inc., priority 2008, dated 2016)
Where a SMILES comes first, the peptide text is derived from it. Bridges are numbered along the chain shown (N, C = ends). [ ]: non-standard residue; d: D form. The star is where a group is joined. S5 = C=CCCC[C@](C)(N)C(=O)O; Nle = CCCC[C@H](N)C(=O)O; Aib = CC(C)(N)C(=O)O; Propionyl = CCC(=O)*

Legend:
Figure 5 = assay: Figure 5
From the text: Table printed on a drawing sheet, Figure 5
The patent's description of the figure: FIG. 5 illustrates the PK profile in rat and monkey for a peptidomimetic macrocycle of the invention.
First reader's note: The first row combines the substance name (SP2) with the conditions dose, route and species in one cell.

Figure 2 = assay: Figure 2; parameters: AUCall: concentration or dose not given beside the values; conditions: for C0 / half-life / MRT: Sprague-Dawley, rat, plasma, iv; for MRT: read-out: MRTinf_obs
Procedure: Table printed on a drawing sheet, Figure 2
Footnotes: 2 mg/mL iv bolus in Sprague-Dawley rats (10 mg/kg) / * 0.6 mg/mL iv bolus in Sprague-Dawley rats (3 mg/kg)
The patent's description of the figure: FIG. 2 lists the in vivo half-lives of peptidomimetic macrocycles of the invention. Half-lives were measured in Sprague Dawley rats after one intravenous bolus injection at 0.6 mg/mL or 2 mg/mL of each unlabeled peptidomimetic macrocycle at a 3 mg/kg or 10 mg/kg dose, respectively. Three animals were used per compound and concentrations were determined by mass-spectrometric analysis of blood levels (plasma).
First reader's note: An asterisk before the peptide name marks dosing at 3 mg/kg (0.6 mg/mL) instead of 10 mg/kg (2 mg/mL).

Compound | AUC all (Figure 5) [µg·h/mL] | Cmax (Figure 5) [µg/mL] | MRTinf (Figure 5) [h] | T ½ (Figure 5) [h] | AUCall (Figure 2) [µg·h/mL] | Cl_obs (Figure 2) [mL/min/kg] | C0 (Figure 2) [µg/mL] | half-life (Figure 2) [h] | MRT (Figure 2) [h]
CC[C@H](C)[C@H](NC(C)=O)C(=O)N[C@@H](Cc1c[nH]c2ccccc12)C(=O)N[C@H](C(=O)N[C@@H](C)C(=O)N[C@@H](CCC(N)=O)C(=O)N[C@@H](CCC(=O)O)C(=O)N[C@@H](CC(C)C)C(=O)N[C@@H](CCCNC(=N)N)C(=O)N[C@@]1(C)CCCC=CCCC[C@@](C)(C(=O)N[C@@H](Cc2ccccc2)C(=O)N[C@@H](CC(N)=O)C(=O)N[C@@H](C)C(=O)N[C@@H](Cc2ccc(O)cc2)C(=O)N[C@@H](Cc2ccc(O)cc2)C(=O)N[C@@H](C)C(=O)N[C@@H](CCCNC(=N)N)C(=O)N[C@@H](CCCNC(=N)N)C(N)=O)NC(=O)[C@H](CC(=O)O)NC(=O)CNC(=O)[C@H]([C@@H](C)CC)NC1=O)[C@@H](C)CC (single isomer, unassigned) [SP2 1 mg/kg IV monkey] | 27.275 | 19.049 | 1.8 | 2.2 | – | – | – | – | –
CC[C@H](C)[C@H](NC(C)=O)C(=O)N[C@@H](Cc1c[nH]c2ccccc12)C(=O)N[C@H](C(=O)N[C@@H](C)C(=O)N[C@@H](CCC(N)=O)C(=O)N[C@@H](CCC(=O)O)C(=O)N[C@@H](CC(C)C)C(=O)N[C@@H](CCCNC(=N)N)C(=O)N[C@@]1(C)CCCC=CCCC[C@@](C)(C(=O)N[C@@H](Cc2ccccc2)C(=O)N[C@@H](CC(N)=O)C(=O)N[C@@H](C)C(=O)N[C@@H](Cc2ccc(O)cc2)C(=O)N[C@@H](Cc2ccc(O)cc2)C(=O)N[C@@H](C)C(=O)N[C@@H](CCCNC(=N)N)C(=O)N[C@@H](CCCNC(=N)N)C(N)=O)NC(=O)[C@H](CC(=O)O)NC(=O)CNC(=O)[C@H]([C@@H](C)CC)NC1=O)[C@@H](C)CC (single isomer, unassigned) [SP2 3 mg/kg IV monkey] | 110.669 | 51.54 | 1.9 | 2 | – | – | – | – | –
CC[C@H](C)[C@H](NC(C)=O)C(=O)N[C@@H](Cc1c[nH]c2ccccc12)C(=O)N[C@H](C(=O)N[C@@H](C)C(=O)N[C@@H](CCC(N)=O)C(=O)N[C@@H](CCC(=O)O)C(=O)N[C@@H](CC(C)C)C(=O)N[C@@H](CCCNC(=N)N)C(=O)N[C@@]1(C)CCCC=CCCC[C@@](C)(C(=O)N[C@@H](Cc2ccccc2)C(=O)N[C@@H](CC(N)=O)C(=O)N[C@@H](C)C(=O)N[C@@H](Cc2ccc(O)cc2)C(=O)N[C@@H](Cc2ccc(O)cc2)C(=O)N[C@@H](C)C(=O)N[C@@H](CCCNC(=N)N)C(=O)N[C@@H](CCCNC(=N)N)C(N)=O)NC(=O)[C@H](CC(=O)O)NC(=O)CNC(=O)[C@H]([C@@H](C)CC)NC1=O)[C@@H](C)CC (single isomer, unassigned) [SP2 10 mg/kg IV monkey] | 427.932 | 180.01 | 2.2 | 1.9 | – | – | – | – | –
CC[C@H](C)[C@H](NC(C)=O)C(=O)N[C@@H](Cc1c[nH]c2ccccc12)C(=O)N[C@H](C(=O)N[C@@H](C)C(=O)N[C@@H](CCC(N)=O)C(=O)N[C@@H](CCC(=O)O)C(=O)N[C@@H](CC(C)C)C(=O)N[C@@H](CCCNC(=N)N)C(=O)N[C@@]1(C)CCCC=CCCC[C@@](C)(C(=O)N[C@@H](Cc2ccccc2)C(=O)N[C@@H](CC(N)=O)C(=O)N[C@@H](C)C(=O)N[C@@H](Cc2ccc(O)cc2)C(=O)N[C@@H](Cc2ccc(O)cc2)C(=O)N[C@@H](C)C(=O)N[C@@H](CCCNC(=N)N)C(=O)N[C@@H](CCCNC(=N)N)C(N)=O)NC(=O)[C@H](CC(=O)O)NC(=O)CNC(=O)[C@H]([C@@H](C)CC)NC1=O)[C@@H](C)CC (single isomer, unassigned) [SP2 10 mg/kg IV rat] | 170.685 | 70.325 | 3.1 | 5.7 | – | – | – | – | –
CC[C@H](C)[C@H](NC(C)=O)C(=O)N[C@@H](Cc1c[nH]c2ccccc12)C(=O)N[C@H](C(=O)N[C@@H](C)C(=O)N[C@@H](CCC(N)=O)C(=O)N[C@@H](CCC(=O)O)C(=O)N[C@@H](CC(C)C)C(=O)N[C@@H](CCCNC(=N)N)C(=O)N[C@@]1(C)CCCC=CCCC[C@@](C)(C(=O)N[C@@H](Cc2ccccc2)C(=O)N[C@@H](CC(N)=O)C(=O)N[C@@H](C)C(=O)N[C@@H](Cc2ccc(O)cc2)C(=O)N[C@@H](Cc2ccc(O)cc2)C(=O)N[C@@H](C)C(=O)N[C@@H](CCCNC(=N)N)C(=O)N[C@@H](CCCNC(=N)N)C(N)=O)NC(=O)[C@H](CC(=O)O)NC(=O)CNC(=O)[C@H]([C@@H](C)CC)NC1=O)[C@@H](C)CC (single isomer, unassigned) [SP2] | – | – | – | – | 170.685 | 1.36 | 70.3 | 5.7 | 3.1
CCCC[C@H](NC(=O)[C@]1(C)CCCC=CCCC[C@](C)(NC(=O)[C@H](C)NC(=O)[C@H](CC(C)C)NC(=O)[C@]2(C)CCCC=CCCCCC(=O)N[C@@H]([C@@H](C)CC)C(=O)N[C@@H](C)C(=O)N[C@@H](CCCNC(=N)N)C(=O)N2)C(=O)N[C@@H](C(C)C)C(=O)NCC(=O)N[C@@H](CC(=O)O)C(=O)N1)C(=O)N[C@@H](CC(=O)O)C(=O)N[C@@H](CCCNC(=N)N)C(=O)N[C@@H](CO)C(=O)N[C@H](C(N)=O)[C@@H](C)CC [*SP12] | – | – | – | – | 69.035 | 0.503 | 6.4 | 5.9 | 9.2
CC[C@H](C)[C@H](NC(C)=O)C(=O)N[C@@H](Cc1c[nH]c2ccccc12)C(=O)N[C@H](C(=O)N[C@@H](C)C(=O)N[C@@H](CCC(N)=O)C(=O)N[C@@H](CCC(N)=O)C(=O)N[C@@H](CC(C)C)C(=O)N[C@@H](CCCNC(=N)N)C(=O)N[C@@]1(C)CCCC=CCCC[C@@](C)(C(=O)N[C@@H](Cc2ccccc2)C(=O)N[C@@H](CC(N)=O)C(=O)N[C@@H](C)C(=O)N[C@@H](Cc2ccc(O)cc2)C(=O)N[C@@H](Cc2ccc(O)cc2)C(=O)N[C@@H](C)C(=O)N[C@@H](CCCNC(=N)N)C(=O)N[C@@H](CCCNC(=N)N)C(N)=O)NC(=O)[C@H](CC(=O)O)NC(=O)CNC(=O)[C@H]([C@@H](C)CC)NC1=O)[C@@H](C)CC [SP3] | – | – | – | – | 156.183 | 1.1 | 186 | 11.1 | 4.3
CCCC[C@H](NC(=O)[C@]1(C)CCCC=CCCC[C@](C)(NC(=O)[C@H](C)NC(=O)[C@H](CC(C)C)NC(=O)[C@H](Cc2c[nH]cn2)NC(=O)[C@H](CCCNC(=N)N)NC(=O)[C@H](C)NC(=O)[C@@H](NC(=O)[C@H](CC(N)=O)NC(=O)[C@H](CCCNC(=N)N)NC(=O)CC)[C@@H](C)CC)C(=O)N[C@@H](C(C)C)C(=O)NC(C)(C)C(=O)N[C@@H](CC(=O)O)C(=O)N1)C(=O)N[C@@H](CC(=O)O)C(=O)N[C@@H](CCCNC(=N)N)C(=O)N[C@@H](CO)C(=O)N[C@H](C(N)=O)[C@@H](C)CC [SP5] (Propionyl-RNIARHLA[S5]V[Aib]D[S5][Nle]DRSI-NH2; staple 9-13) | – | – | – | – | 127.629 | 1.52 | 271 | 2.4 | 0.6
CC[C@H](C)[C@H](NC(=O)[C@H](CO)NC(=O)[C@H](CCCNC(=N)N)NC(=O)[C@H](C)NC(=O)[C@H](C)NC(=O)[C@]1(C)CCCC=CCCC[C@](C)(NC(=O)[C@H](C)NC(=O)[C@H](CC(C)C)NC(=O)[C@H](Cc2c[nH]cn2)NC(=O)[C@H](CCCNC(=N)N)NC(=O)[C@H](C)NC(=O)[C@@H](NC(=O)[C@H](CC(N)=O)NC(=O)[C@H](CCCNC(=N)N)NC(=O)[C@@H](NC(=O)[C@@H](NC(=O)[C@H](CC(=O)O)NC(C)=O)[C@@H](C)CC)[C@@H](C)CC)[C@@H](C)CC)C(=O)N[C@@H](C(C)C)C(=O)NC(C)(C)C(=O)N[C@@H](CC(=O)O)C(=O)N1)C(N)=O [SP7] (Ac-DIIRNIARHLA[S5]V[Aib]D[S5]AARSI-NH2; staple 12-16) | – | – | – | – | 402.899 | 0.398 | 158 | 3.9 | 3.1
CCC(=O)N[C@@H](CCCNC(=N)N)C(=O)N[C@@H](CC(N)=O)C(=O)N[C@H](C(=O)N[C@@H](C)C(=O)N[C@@H](CCCNC(=N)N)C(=O)N[C@@H](Cc1c[nH]cn1)C(=O)N[C@@H](CC(C)C)C(=O)N[C@@H](C)C(=O)N[C@@]1(C)CCCC=CCCC[C@@](C)(C(=O)N[C@@H](Cc2ccccc2)C(=O)N[C@@H](C)C(=O)N[C@@H](CCCNC(=N)N)C(=O)N[C@@H](CO)C(=O)N[C@H](C(N)=O)[C@@H](C)CC)NC(=O)[C@H](CC(=O)O)NC(=O)C(C)(C)NC(=O)[C@H](C(C)C)NC1=O)[C@@H](C)CC [SP8] (Propionyl-RNIARHLA[S5]V[Aib]D[S5]FARSI-NH2; staple 9-13) | – | – | – | – | 73.751 | 1.997 | 148 | 19.9 | 2.3
CCCC[C@H](NC(=O)[C@]1(C)CCCC=CCCC[C@](C)(NC(=O)[C@H](C)NC(=O)[C@H](CC(C)C)NC(=O)[C@H](Cc2c[nH]cn2)NC(=O)[C@H](CCCNC(=N)N)NC(=O)[C@H](C)NC(=O)[C@@H](NC(=O)[C@H](CC(N)=O)NC(=O)[C@H](CCCNC(=N)N)NC(=O)CC)[C@@H](C)CC)C(=O)N[C@@H](C(C)C)C(=O)NCC(=O)N[C@@H](CC(=O)O)C(=O)N1)C(=O)NC(C)(C)C(=O)N[C@@H](CCCNC(=N)N)C(=O)N[C@@H](CO)C(=O)N[C@H](C(N)=O)[C@@H](C)CC [SP10] (Propionyl-RNIARHLA[S5]VGD[S5][Nle][Aib]RSI-NH2; staple 9-13) | – | – | – | – | 35.591 | 3.605 | 51.7 | 21.8 | 3
